Activity calls are given as the source filed them.
Experiments:
[1] = biological target: T1, Sentrin-specific protease 6 (Homo sapiens, UniProt Q9GZR1); type: functional;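 also: Luminescence-based dose-response confirmatory assay of SENP6 inhibition, following up an ultra-high-throughput screen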
T1 sequence (Q9GZR1 whole entry): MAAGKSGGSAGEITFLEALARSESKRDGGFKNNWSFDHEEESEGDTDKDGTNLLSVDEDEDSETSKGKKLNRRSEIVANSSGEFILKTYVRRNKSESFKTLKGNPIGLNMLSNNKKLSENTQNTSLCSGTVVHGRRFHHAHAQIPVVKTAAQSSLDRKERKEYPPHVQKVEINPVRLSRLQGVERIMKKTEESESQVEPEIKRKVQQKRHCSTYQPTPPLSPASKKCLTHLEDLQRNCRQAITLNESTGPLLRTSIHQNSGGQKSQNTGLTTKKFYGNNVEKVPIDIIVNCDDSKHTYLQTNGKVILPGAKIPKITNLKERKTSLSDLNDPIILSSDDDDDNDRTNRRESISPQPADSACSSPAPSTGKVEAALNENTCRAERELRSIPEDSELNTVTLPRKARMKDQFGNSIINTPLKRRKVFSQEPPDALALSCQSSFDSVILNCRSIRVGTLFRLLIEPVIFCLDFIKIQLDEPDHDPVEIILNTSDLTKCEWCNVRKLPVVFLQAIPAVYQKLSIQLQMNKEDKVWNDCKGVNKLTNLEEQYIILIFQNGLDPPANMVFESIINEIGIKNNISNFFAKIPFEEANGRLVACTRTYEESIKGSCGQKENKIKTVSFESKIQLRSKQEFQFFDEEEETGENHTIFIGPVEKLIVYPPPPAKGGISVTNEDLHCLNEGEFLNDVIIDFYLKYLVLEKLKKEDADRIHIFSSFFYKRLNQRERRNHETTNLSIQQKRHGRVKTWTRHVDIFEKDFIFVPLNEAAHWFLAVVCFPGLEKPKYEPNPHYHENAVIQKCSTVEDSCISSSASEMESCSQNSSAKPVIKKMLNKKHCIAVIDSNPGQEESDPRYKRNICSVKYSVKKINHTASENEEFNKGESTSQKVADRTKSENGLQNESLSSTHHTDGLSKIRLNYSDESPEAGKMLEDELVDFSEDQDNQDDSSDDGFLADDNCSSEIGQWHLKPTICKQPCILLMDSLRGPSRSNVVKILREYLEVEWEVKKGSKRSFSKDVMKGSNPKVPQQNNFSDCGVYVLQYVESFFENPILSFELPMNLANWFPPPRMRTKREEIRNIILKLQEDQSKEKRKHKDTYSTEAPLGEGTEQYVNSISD

[2] = biological target: T2, Sentrin-specific protease 7 (Homo sapiens, UniProt Q9BQF6); type: functional;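 also: Luminescence-based dose-response confirmation of ultra-high-throughput screening hits, measuring inhibition of SENP7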
T2 sequence (Q9BQF6 whole entry): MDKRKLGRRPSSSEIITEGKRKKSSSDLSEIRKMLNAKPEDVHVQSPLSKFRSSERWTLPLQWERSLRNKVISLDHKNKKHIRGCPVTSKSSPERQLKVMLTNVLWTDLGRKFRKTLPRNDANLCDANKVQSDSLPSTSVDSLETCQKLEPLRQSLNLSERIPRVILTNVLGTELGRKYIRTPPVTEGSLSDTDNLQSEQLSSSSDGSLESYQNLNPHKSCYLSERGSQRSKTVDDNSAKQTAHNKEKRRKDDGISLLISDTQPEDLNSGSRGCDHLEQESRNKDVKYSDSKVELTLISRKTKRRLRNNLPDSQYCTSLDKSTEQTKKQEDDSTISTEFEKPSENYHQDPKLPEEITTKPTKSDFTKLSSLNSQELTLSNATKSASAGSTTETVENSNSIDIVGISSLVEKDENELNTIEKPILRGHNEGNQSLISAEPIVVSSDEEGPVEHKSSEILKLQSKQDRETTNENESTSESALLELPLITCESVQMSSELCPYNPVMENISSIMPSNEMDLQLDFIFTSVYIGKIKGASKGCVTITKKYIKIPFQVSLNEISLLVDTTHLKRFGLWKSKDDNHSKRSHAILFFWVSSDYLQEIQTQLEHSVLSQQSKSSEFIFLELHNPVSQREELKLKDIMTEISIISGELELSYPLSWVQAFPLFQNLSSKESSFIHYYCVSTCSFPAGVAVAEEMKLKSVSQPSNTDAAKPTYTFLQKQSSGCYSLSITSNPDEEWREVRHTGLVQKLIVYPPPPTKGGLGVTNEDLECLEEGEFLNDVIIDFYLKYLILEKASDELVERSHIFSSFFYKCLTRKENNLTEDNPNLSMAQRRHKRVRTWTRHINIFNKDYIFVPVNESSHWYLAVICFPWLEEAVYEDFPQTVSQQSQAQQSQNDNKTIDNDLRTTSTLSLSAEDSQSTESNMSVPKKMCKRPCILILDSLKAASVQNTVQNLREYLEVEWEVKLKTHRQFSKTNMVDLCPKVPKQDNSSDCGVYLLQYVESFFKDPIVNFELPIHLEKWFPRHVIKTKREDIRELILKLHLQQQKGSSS

[3] = test system: INS1; assay: beta cell apoptosis inhibitors, cytokine rescue, dose response, luminescence, retest (AID 449756); type: functional, cell-based; details: Rattus norvegicus;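 also: cell death triggered by IL-1 beta plus TNF-alpha plus IFN-gamma mixture; protective hits raise ATP signal compared with cytokine alone wells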
[4] = THP-1 cell cytotoxicity, dose response, cytotoxicity control for Vif-APOBEC3G degradation inhibitor project, THP-1 cells (AID 1117359); type: functional; details: Human immunodeficiency virus 1, THP-1
[5] = inhibitors of intracellular T. cruzi replication, confirmation, NIH3T3 host cells, beta-gal luminescence (AID 2044); type: functional, cell-based;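 also: intracellular parasites grown in NIH/3T3 mouse fibroblasts as host cells; luminescent beta-galactosidase reporter signal from transgenic T. cruzi replicating inside host cells; inhibitors lower the luminescence signal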
[6] = cytotoxicity toward NIH3T3 fibroblasts, dose response, counter-screen, cell-based, ATP luminescence, mouse fibroblasts (AID 2010); type: functional;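 also: cells exposed to compound for about 90 hours before reading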

O=C(/C=C/c1ccco1)Nc1ccc(Oc2ccccc2)cc1
active: IC50 [1] 5.23 µM | IC50 [2] 3.82 µM

COc1ccc(S(=O)(=O)Nc2cc(SCC(=O)O)c(O)c3ccccc23)cc1
active: AC50 [3] 4.09 µM | IC50 [1] 3.81 µM | IC50 [2] 19.9 µM | CC50 [4] 5.84 µM

O=C1C(Nc2ccc(O)cc2)=C/C(=N/S(=O)(=O)c2cccs2)c2ccccc21
active: EC50 [5] 0.55 µM | EC50 [6] 0.486 µM

CC1CC(=O)c2c(cc3c(-c4c(O)cc(O)c5c(O)c6c(cc45)OC(C)CC6=O)c(O)cc(O)c3c2O)O1 (configuration not stated) [CEPHALOCHROMIN]
active: AC50 [3] 3.39 µM | EC50 [5] 0.373 µM | EC50 [6] 8.42 µM | CC50 [4] 3.08 µM

Source: ChEMBL document CHEMBL1201862, “PubChem BioAssay data set” (2004)
